Assay results from US4639450A, “Polyprenylcarboxylic acid morpholides and pharmaceutical compositions” (Eisai Co., Ltd., priority 1979, dated 1987).

Key:
[1] = test system: liver dysfunction (hepatitis) induced by D-galactosamine; test: Experiment I: effect on the liver dysfunction (hepatitis) induced by D-galactosamine, test compound administered into the abdominal cavity; format: in vivo, Rats of the SD series; conditions: D-galactosamine hydrochloride 250 mg/Kg
Description: The effect on the liver dysfunction (hepatitis) induced by D-galactosamine by administration into the abdominal cavity was examined.
(§1) Rats of the SD series having a body weight of about 250 g were used as test animals. D-Galactosamine hydrochloride (250 mg/Kg each time) and the test compound (50 mg/Kg each time) were administered into the abdominal cavity according to the schedule described below. After termination of the experiment, blood was collected from the test animals, and the GOT value, GPT value and alkali phosphatase value, which are indicators of the degree of the liver dysfunction, were measured.
(§2) The test compound was suspended in a 5% aqueous solution of gum arabic and was administered in the form of the suspension. D-Galactosamine hydrochloride was dissolved in distilled water, the pH value of the solution was adjusted to 7 by potassium hydroxide and the resulting solution was administered. The test compound was administered to a group consisting of 9 rats, and in place of the test compound, a 5% aqueous solution of gum arabic free of the test compound was administered to a control group consisting of 14 rats. Neither the test compound nor D-galactosamine hydrochloride was administered to a normal group consisting of 9 rats.
(§3) Administration Schedule: [formula]

[2] = test system: liver dysfunction (hepatitis) induced by D-galactosamine; test: Experiment II: effect on the liver dysfunction (hepatitis) induced by D-galactosamine, oral administration; format: in vivo, Rats of the SD series; conditions: Tables 3 and 4, 400 mg/Kg each time, D-galactosamine hydrochloride 200 mg/Kg hypodermically; for GPT Value: normal 34.8 ± 1.9, control 395.7 ± 49.3; for Alkali Phosphatase Value: normal 49.3 ± 4.4, control 67.4 ± 2.9; for GOT Value: normal 129.4 ± 12.6, control 573.7 ± 59.1
Description: as §1, §2
The effect on the liver dysfunction (hepatitis) induced by D-galactosamine by oral administration was examined.
D-galactosamine hydrochloride (200 mg/Kg each time) was hypodermically administered, and the test compound (400 mg/Kg each time) was orally administered. The test compound-administered group consisted of 9 rats, the control group consisted of 14 rats, and the normal group consisted of 8 rats. The administration schedule was as follows.
as §3
Other test conditions were the same as in Experiment I.

[3] = test system: rats of the Wistar series; conditions: rat, in vivo, po, 4000 mg/kg
Description: The compounds C, D, I and M were separately suspended in 5% aqueous solutions of gum arabic and the test composition were orally administered to rats of the Wistar series at a dose of 4000 mg/Kg.

[4] = Table 1, 50 mg/Kg each time, normal 32.3 ± 3.3, control 94.2 ± 6.9
[5] = Table 1, 50 mg/Kg each time, normal 33.1 ± 2.3, control 509 ± 94
[6] = Table 1, 50 mg/Kg each time, normal 127.0 ± 6.1, control 751 ± 130
[7] = Table 2, 50 mg/Kg each time, normal 39.0 ± 2.4, control 992.3 ± 121.2
[8] = Table 2, 50 mg/Kg each time, normal 48.9 ± 4.7, control 125.7 ± 4.9
[9] = Table 2, 50 mg/Kg each time, normal 129.9 ± 10.1, control 1081.8 ± 90.3

CC(C)CCCC(C)CCCC(C)CC(=O)N1CCOCC1 (stereo not shown) [compound A, 4-(3,7,11-trimethyldodecanoyl)morpholine]
Alkali Phosphatase Value [1, 4]: 31.9 ± 1.8 KA unit
GPT Value [1, 5]: 46.8 ± 11 carmen unit
GOT Value [1, 6]: 257.4 ± 31 carmen unit
GPT Value [2]: 62.1 ± 10.7 carmen unit
Alkali Phosphatase Value [2]: 64.1 ± 4.6 KA unit
GOT Value [2]: 193.0 ± 18.5 carmen unit

CC(C)=CCC/C(C)=C/CCC(C)CC(=O)N1CCOCC1 (stereo not shown) [compound B, 4-[(E)-3,7,11-trimethyl-6,10-dodecadienoyl]morpholine]
Alkali Phosphatase Value [1, 4]: 40.2 ± 2.4 KA unit
GPT Value [1, 5]: 50.4 ± 16 carmen unit
GOT Value [1, 6]: 316 ± 27 carmen unit
GPT Value [2]: 67.4 ± 7.3 carmen unit
Alkali Phosphatase Value [2]: 62.9 ± 4.9 KA unit
GOT Value [2]: 233.3 ± 22.2 carmen unit

CC(C)CCCC(C)CCCC(C)CCCC(C)CC(=O)N1CCOCC1 (stereo not shown) [compound C, 4-(3,7,11,15-tetramethylhexadecanoyl)morpholine]
Alkali Phosphatase Value [1, 4]: 23.5 ± 1.8 KA unit
GPT Value [1, 5]: 40 ± 13 carmen unit
GOT Value [1, 6]: 352 ± 34 carmen unit
GPT Value [2]: 122.0 ± 16.1 carmen unit
Alkali Phosphatase Value [2]: 46.7 ± 4.0 KA unit
GOT Value [2]: 231.1 ± 26.4 carmen unit
death of rats [3]: None of the rats died

CC(C)=CCC/C(C)=C/CC/C(C)=C/CCC(C)CC(=O)N1CCOCC1 (stereo not shown) [compound D, 4-[(E,E)-3,7,11,15-tetramethyl-6,10,14-hexadecatrienoyl]morpholine]
Alkali Phosphatase Value [1, 4]: 28.5 ± 2.0 KA unit
GPT Value [1, 5]: 94 ± 39 carmen unit
GOT Value [1, 6]: 430 ± 58 carmen unit
GPT Value [2]: 58.8 ± 5.5 carmen unit
Alkali Phosphatase Value [2]: 53.1 ± 5.6 KA unit
GOT Value [2]: 84.8 ± 8.9 carmen unit
death of rats [3]: None of the rats died

CC(C)=CCC/C(C)=C/CC/C(C)=C/CCC(C)CC(N)=O (stereo not shown) [compound E, (E,E)-3,7,11,15-tetramethyl-6,10,14-hexadecatrienamide]
Alkali Phosphatase Value [1, 4]: 32.1 ± 2.6 KA unit
GPT Value [1, 5]: 64 ± 15 carmen unit
GOT Value [1, 6]: 425 ± 24 carmen unit

CC(C)=CCC/C(C)=C/CC/C(C)=C/CCC(C)CC(=O)N(C)C (stereo not shown) [compound F, (E,E)-N,N-dimethyl-3,7,11,15-tetramethyl-6,10,14-hexadecatrienamide]
Alkali Phosphatase Value [1, 4]: 28.0 ± 2.4 KA unit
GPT Value [1, 5]: 90 ± 44 carmen unit
GOT Value [1, 6]: 400 ± 75 carmen unit

CC(C)=CCC/C(C)=C/CC/C(C)=C/CCC(C)CC(=O)N1CCN(CCO)CC1 (stereo not shown) [compound G, 1-[(E,E)-3,7,11,15-tetramethyl-6,10,14-hexadecatrienoyl]-4-(2-hydroxyethyl)piperazine]
Alkali Phosphatase Value [1, 4]: 29.6 ± 2.3 KA unit
GPT Value [1, 5]: 84 ± 17 carmen unit
GOT Value [1, 6]: 414 ± 49 carmen unit

CC(=CC(=O)N1CCOCC1)CCCC(C)CCCC(C)C (stereo not shown) [compound H, 4-(3,7,11-trimethyl-2-dodecaenoyl)morpholine]
GPT Value [1, 7]: 511.3 ± 173.7 carmen unit
Alkali Phosphatase Value [1, 8]: 49.0 ± 1.9 KA unit
GOT Value [1, 9]: 732.1 ± 147.3 carmen unit

CC(=CC(=O)N1CCOCC1)CCCC(C)CCCC(C)CCCC(C)C (stereo not shown) [compound I, 4-(3,7,11,15-tetramethyl-2-hexadecaenoyl)morpholine]
GPT Value [1, 7]: 135.3 ± 46.4 carmen unit
Alkali Phosphatase Value [1, 8]: 35.4 ± 5.2 KA unit
GOT Value [1, 9]: 659.3 ± 72.5 carmen unit
GPT Value [2]: 154.9 ± 21.5 carmen unit
Alkali Phosphatase Value [2]: 44.31 ± 3.1 KA unit
GOT Value [2]: 284.9 ± 36.4 carmen unit
death of rats [3]: None of the rats died

CC(C)=CCCC(C)=CCCC(C)=CCCC(C)=CC(N)=O [compound J, 3,7,11,15-tetramethyl-2,6,10,14-hexadecatetraenamide]
GPT Value [1, 7]: 314.5 ± 65.9 carmen unit
Alkali Phosphatase Value [1, 8]: 49.9 ± 3.0 KA unit
GOT Value [1, 9]: 617.0 ± 50.5 carmen unit

CC(C)=CCCC(C)=CCCC(C)=CCCC(C)=CC(=O)N(C)C [compound K, N,N-dimethyl-3,7,11,15-tetramethyl-2,6,10,14-hexadecatetraenamide]
GPT Value [1, 7]: 193.8 ± 38.1 carmen unit
Alkali Phosphatase Value [1, 8]: 45.2 ± 1.8 KA unit
GOT Value [1, 9]: 586.0 ± 56.5 carmen unit

CC(C)=CCCC(C)=CCCC(C)=CCCC(C)=CC(=O)N1CCN(CCO)CC1 [compound L, 1-(3,7,11,15-tetramethyl-2,6,10,14-hexadecatetraenoyl)-4-(2-hydroxyethyl)piperazine]
GPT Value [1, 7]: 138.1 ± 16.9 carmen unit
Alkali Phosphatase Value [1, 8]: 42.8 ± 1.8 KA unit
GOT Value [1, 9]: 451.7 ± 37.9 carmen unit

CC(C)=CCCC(C)=CCCC(C)=CCCC(C)=CC(=O)N1CCOCC1 [compound M, 4-(3,7,11,15-tetramethyl-2,6,10,14-hexadecatetraenoyl)morpholine]
GPT Value [2]: 58.9 ± 7.3 carmen unit
Alkali Phosphatase Value [2]: 59.4 ± 4.9 KA unit
GOT Value [2]: 178.4 ± 10.3 carmen unit
death of rats [3]: None of the rats died
